# Test results reported in patent US10668056B2, “Pharmaceutical composition comprising indole derivatives, process for preparation and use thereof” (VIVOLUX AB, priority 2015, dated 2020).
# pIC50: −log10 of the molar value.
# Assays:
# [1] = system: HeLa (Cervix Adenocarcinoma); assay: FMCA cytotoxicity, HeLa; type: cell-based, human; details: Homo sapiens, 72 h
# Procedure: (§1) The inventors also set out to characterize activity of the compounds A, B and C in cell lines representing cancer of different origin. The specific assays used and the conclusions from the mechanistic evaluation have previously been described in detail (Zhang et al. 2014). Compounds A, B and C (See FIG. 4) were evaluated for cytotoxicity expressed as survival index (SI) in six human tumor cell lines using the cell based fluorometric micro culture cytotoxicity assay (FMCA) as previously described in detail (Lindhagen et al, 2008). The method is based on measurement of fluorescent fluorescein, generated from hydrolysis of FDA by viable cells with intact plasma membrane. The fluorescence is proportional to the number of intact viable cells.
# (§2) The cell lines were cultivated in the respective cell medium recommended by the provider. The medium was supplemented with 10% heat-inactivated fetal bovine serum, 2 mmol/L L-glutamine, 100 μg/mL streptomycin and 100 U/mL penicillin (all from Sigma-Aldrich). The cell line was cultured at 37° C. in a humidified atmosphere containing 5% CO2.
# (§3) FMCA analysis in brief, 2500 cells per well were seeded into 384-well microplates and incubated over night before treatment with compounds. Compounds were added using acoustic liquid transfer (Echo 550, LabCyte). The plates were incubated at 37° C. for 72 h, and then washed and FDA was added to the wells followed by 50 min of incubation at 37° C. The fluorescence, which is proportional to the number of living cells in each well, was measured at 485/520 nm in a Fluoroskan instrument (Labsystems, GMI, Ramsey, Minn.). Cell survival is presented as Survival Index (SI), defined as the fluorescence value in the compound-treated wells analysed as percentage of the value in the control wells, with blank values subtracted. Quality criteria included a signal/blank ratio >10 and a coefficient of variation (CV) in control and blank wells <30%. Graph Pad Prism (San Diego, Calif., USA). All experiments were performed twice, and each concentration was evaluated in quadruplicates in each experiment. […]
# HCT116 (Colon carcinoma) = assay: FMCA cytotoxicity, HCT116; type: cell-based, human; details: Homo sapiens, HCT-116, 72 h
# Procedure: as §1, §2, §3
# [2] = system: CCRF-CEM (Acute lymphoblastic leukemia); assay: FMCA cytotoxicity, CCRF-CEM; type: cell-based, human; details: Homo sapiens, 72 h
# Procedure: as §1, §2, §3
# RKO (Colon carcinoma) = assay: FMCA cytotoxicity, RKO; type: cell-based, human; details: Homo sapiens, 72 h
# Procedure: as §1, §2, §3
# [3] = system: six human tumor cell lines; assay: FMCA cytotoxicity, six human tumor cell lines (overall); type: cell-based; details: Table 6 and FIG. 4
# Procedure: as §1, §2, §3
# [4] = system: HepG2 (Hepatocellular Carcinoma); assay: FMCA cytotoxicity, HepG2; type: cell-based, human; details: Homo sapiens, 72 h
# Procedure: as §1, §2, §3
# [5] = system: THP-1 (Acute Monocytic Leukemia); assay: FMCA cytotoxicity, THP-1; type: cell-based, human; details: Homo sapiens, 72 h
# Procedure: as §1, §2, §3
Compound,pIC50 [1],pIC50 (HCT116 (Colon carcinoma)),pIC50 [2],pIC50 (RKO (Colon carcinoma)),activity on cancer cell lines [3],pIC50 [4],pIC50 [5]
"CC/C(=N\Nc1nnc2c(n1)[nH]c1c(C)cccc12)c1ccccn1 [Compound B, 2-[(1E)-1-(2-{6-methyl-5H-[1,2,4]triazino[5,6-b]indole-3-yl}hydrazin-1-ylidene)propyl]pyridine]",~4.70,~6.00,> 6.60,> 6.60,strong activity,> 6.60,> 6.60
"Cc1cccc2c1[nH]c1nc(NN=C(CC(C)(C)C)c3ccccn3)nnc12 [Compound C, 2-(3,3-dimethyl-N-{6-methyl-5H-[1,2,4]triazino[5,6-b]indole-3-yl}butanehydrazonoyl)pyridine]",~5.00,~6.00,> 6.60,> 6.60,strong activity,> 6.60,> 6.60
